Test results: patent publication US7063842B2, “Compounds and methods for inhibiting the interaction between α-catenin and β-catenin” (McGill University, priority 1997, dated 2006)
Positions of bridges follow the written chain, without caps; N, C: chain ends.

Experiments:
[1] = system: Normal human breast A1N4 cells; test: Disruption of cell adhesion: microinjection of peptide/DAPI mixture into cells, morphology noted at hourly intervals; assay type: cell-based; details: 0.2 pL peptide/DAPI mixture injected, final intracellular concentration of peptide 0.5 mg/ml, after 4 hours
Procedure: Three peptides (N-Ac-CKHAVVNC-NH2, N-Ac-CKHGWNC-NH2, and H-KHAVVN-OH; SEQ ID NOS: 5, 51 and 8 respectively) were tested for their ability to disrupt cell adhesion. Normal human breast A1N4 cells were grown on gridded glass coverslips to approximately 30% confluence. Peptides were dissolved in distilled water at a concentration of […]. Each of the three peptide solutions was mixed 1:1 with a solution containing the fluorescent marker DAPI (Molecular Probes Inc., Eugene, Oreg.) dissolved in water at a concentration of 40 μg/ml. All of the mixtures were centrifuged at 10,000×g for 5 minutes immediately before use in the experiments. An aliquot ([…]) of each peptide/DAPI mixture was taken up in an Eppendorff microinjection pipette. Microinjection was performed using an Eppendorf microinjector and micromanipulator coupled to an IM35 inverted Zeiss microscope with phase contrast and Hoffman optics. Cells to be injected were located and their position on the grid noted. For microinjection, the pipette was brought close to the cell layer and the micromanipulator programmed to return to the same plane. Cells were injected with 0.2 pL of peptide/DAPI mixture. This corresponds to approximately 1/100 of the cell volume and results in a final intracellular concentration of peptide of 0.5 mg/ml. […] After 4 hours, a difference in the morphology of the cells injected with the various peptides was observed.

[2] = system: α-catenin/β-catenin interactions; test: Immunoprecipitation from adult mouse brain extracts, Western blot probed with anti-α-catenin / anti-β-catenin antibodies; assay type: binding; details: adult mouse brain homogenate incubated 3 hours at 4° C. with peptide at 1 mg/ml
Procedure: As noted above, modulating agents are capable of disrupting an interaction between α-catenin and β-catenin. This ability may generally be evaluated using any suitable assay known to those of ordinary skill in the art. For example, an immunoprecipitation as described herein may be employed. Within such an assay, disruption of the interaction is measured by assessing the ability of an antibody directed against β-catenin to immunoprecipitate α-catenin in the presence and absence of the modulating agent. For example, tissue such as brain may be homogenized in the presence and absence of modulating agent. The ability of an antibody directed against β-catenin to immunoprecipitate α-catenin from the homogenate is then assessed by probing a Western blot of proteins immunoprecipitated from the tissue homogenate by anti-β-catenin antibody with an anti-α-catenin antibody. […]
These peptides, as well as two control peptides (H-CKHGWNC-OH, SEQ ID NO:6, and H-CKHGWNC-OH, SEQ ID NO:51) were analyzed for their ability to disrupt α-catenin/β-catenin interactions, as judged by standard immunoprecipitation methods. […] Finally, the membrane was washed 3 times with TTBS, and the immunoreactive proteins were detected using an enhanced chemiluminescence kit (ECL; Amersham Life Sciences Inc., Oakville, Ontario) and autoradiographic film (Fuji, Minami-Ashigara, Japan). […]

Substance	morphology of the injected cells [1]	ability to disrupt α-catenin/β-catenin interactions, as judged by immunoprecipitation [2]
Ac-CKHGWNC-NH2 (cysteine pairing not given here) [N-Ac-CKHGWNC-NH2 (SEQ ID NO:51), reference compound]	indistinguishable from surrounding uninjected cells	
H-CKHAVVNC-OH (cysteine pairing not given here) [H-CKHAVVNC-OH (SEQ ID NO:4)]		capable of disrupting the interaction between α-catenin and β-catenin
H-Cys-Lys-His-Ala-Val-Val-Asn-Cys-OH (H-CKHAVVNC-OH; cysteine pairing not given here) [H-CKHAVVNC-OH (SEQ ID NO:5)]		capable of disrupting the interaction between α-catenin and β-catenin
H-KHAVVN-OH [H-KHAVVN-OH (SEQ ID NO:8)]	had become rounded, and they were detached from their neighbors	
N-Ac-CKHAVVNC-NH2 (disulfide 1-8 (inferred)) [N-Ac-CKHAVVNC-NH2 (SEQ ID NO:5)]	indistinguishable from surrounding uninjected cells	
